Among the data in the METLIN SMRT retention time set (Domingo-Almenara et al. 2019) are RP-LC retention time values, retold here.

A short description of this data set: gradient 5% acetonitrile 3 min, to 50% in 2 min, to 85% in 15 min, held 3 min, 100 µL/min. The note with it: column: Zorbax Extend-C18 2.1 x 50 mm; eluents: water / acetonitrile, 0.1% formic acid. In a few lines: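 Over 3 months, pure standards in mixtures of ~100 molecules were run by HPLC coupled to a quadrupole time-of-flight mass spectrometer in positive and negative ionization mode. The column was a Zorbax Extend-C18 (2.1 × 50 mm, 1.8 μm) at 100 μL/min, eluted with water and acetonitrile each holding 0.1% formic acid, with 40 μL dead and 900 μL dwell volumes. Retention time was determined from adduct peaks chosen by software and checked manually.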
In turn, `Cc1ccc(C)c(N2CCN(c3ccnc(SCC(=O)Nc4ccccc4C)n3)CC2)c1` displayed an RP-LC retention time of 1010 s.
For `CCOc1ccc(C2c3[nH]c4ccccc4c3CCN2C(=O)c2ccnn2C)cc1` (stereo unspecified), the RP-LC retention time was found to be 678 s.
For the molecule `COc1cc(=O)n2c(c1C(=O)NCCC1=CCCCC1)CCCC2`, the RP-LC retention time turned out to be 723 s.
In turn, `O=C(NCc1ccc(OC(F)(F)F)cc1)C1c2c(F)cccc2C(=O)N1CCc1ccccn1` (stereo unspecified) showed an RP-LC retention time of 787 s.
To `O=C(Nc1ccc(-c2nnc3n2CCCC3)cc1)C1CC1` belongs 609 s; to `CCOCCOC(=O)C1=C(C)NC2=C(C(=O)C(C(=O)OC)C(C)C2)C1c1cccc(Cl)c1` (stereo unspecified), 931 s; to `Cc1ccc(Cl)c(NC(=O)c2[nH]c3cc(C)sc3c2CN2CCOCC2)c1`, 724 s.
To `Cc1ccc(CN2CCn3c(nn(C)c3=O)C2)nc1` belongs 530 s.
`CCOc1ccc(Nc2c(-c3ccc(C(=O)O)cc3)nc3cnccn23)cc1` returned an RP-LC retention time of 729 s.
For `Cc1ccccc1OCC(=O)N1CCN(c2nc(CN3CCOCC3)cs2)CC1`, the RP-LC retention time was determined as 653 s.
`CCOc1ccccc1NC(=O)C1CN(S(C)(=O)=O)CC12CCCCC2` (stereo unspecified) yielded an RP-LC retention time of 682 s.
The molecule `CCOc1ccc(-c2cc3c(=O)n(Cc4nc(-c5ccccc5)no4)ncn3n2)cc1` came in with an RP-LC retention time of 720 s.
To `COc1cccc(-c2noc(Cn3ccn(-c4ccccc4C)c(=O)c3=O)n2)c1OC` belongs 798 s; to `COC(=O)c1sccc1NC(=O)N1CCCn2nc(-c3cccs3)cc2C1`, 984 s; to `Cc1ccc(NC(=O)NC2CCN(c3ccccc3)C2=O)c(C)c1` (stereo unspecified), 823 s.
As for `N#Cc1cccc(-c2cn3c(n2)N(C(=O)c2cnccn2)CCC3)c1`, the RP-LC retention time turned out to be 687 s.
To `C=CCNC(=O)c1nc(C(=O)N2CCCCCC2)cs1` belongs 733 s; to `COc1ccc(Cl)cc1NC(=O)N(C)CCc1noc(COc2ccccc2)n1`, 1010 s.
To `COc1cccc(CN2CCCCCCNC(=O)[C@@H]3CCC[C@@H]32)n1` belongs 660 s.
To `COc1ccc(C2C(C(=O)NCCCN3CCCCCC3)CCC(=O)N2c2ccc(OC)cc2)cc1` (stereo unspecified) belongs 589 s; to `Cc1nc(C2CN(S(=O)(=O)c3cccc(C(F)(F)F)c3)CC23CCOCC3)no1` (stereo unspecified), 856 s; to `COc1cccc(CNC(=O)C2(C)CCCN(S(=O)(=O)c3ccc(Cl)cc3)C2)c1` (stereo unspecified), 932 s.
As for `CCOc1ccccc1NC(=O)N1CCc2nc(OCCOC)ccc2C1`, the RP-LC retention time worked out at 871 s.
In turn, `Cc1ccc(NC(=O)N2CCc3nc[nH]c3C2)cc1C` had an RP-LC retention time of 606 s.
The molecule `CCc1nc(OCC(=O)Nc2ccc(Cl)cc2F)c2ccccc2n1` registered an RP-LC retention time of 899 s.
`CCNC(=O)N1CC(Oc2ccc(-c3nc(C)no3)cc2)C1`: the RP-LC retention time was 688 s.
To `Cc1ccc(S(=O)(=O)N2CCc3nc(-c4ccc(F)cc4)ncc3C2)c(C)c1` belongs 1220 s.
To `COc1ccc(Nc2c(-c3ccc(C)cc3)nc3cnc(Br)cn23)cc1OC` belongs 915 s; to `COc1ccccc1N1CCN(C(=O)c2cn(-c3ccc(NC(=O)C4CC4)cn3)cn2)CC1`, 699 s; to `CC(C)n1c(=O)c(NCc2cccc(C(F)(F)F)c2)nc2ccncc21`, 725 s.
For the molecule `Cc1nc(-c2ccc(-n3cc(C(=O)Nc4ccc(Br)cc4F)c(C)n3)cc2)no1`, the RP-LC retention time amounted to 962 s.
The molecule `CC(=O)c1ccc(NC(=O)c2nc3nc(C)cc(C(F)F)n3n2)cc1` yielded an RP-LC retention time of 722 s.
With `CCn1nccc1-c1cccc(-c2noc(-c3ccc(F)c(F)c3)n2)c1`, the RP-LC retention time was 1270 s.
To `Fc1ccc(-c2noc(-c3nnn4c3COC(c3ccc(Cl)cc3)C4)n2)cc1` (stereo unspecified) belongs 1250 s.
To `CN(C)CCCNC(=O)c1cc(-c2ccc(Cl)cc2)cn1C` belongs 671 s.
To `CC1CCN(CC2CCN(S(=O)(=O)c3ccccc3Cl)CC2)CC1` belongs 664 s.
Molecule `O=C(CCc1c(-c2ccc(Br)cc2)nc2ccccn12)NCc1cccc(F)c1` had an RP-LC retention time of 677 s.
The molecule `CCCn1c(=O)c(C)nc2cc(-c3noc(C4CC(=O)N(C5CCCC5)C4)n3)ccc21` (stereo unspecified) came in with an RP-LC retention time of 878 s.
Consider `O=C(CN1C(=O)C(C(=O)N2CCCC2)Sc2ccccc21)N1CCN(Cc2ccccc2)CC1` (stereo unspecified), for which the RP-LC retention time turned out to be 625 s.
To `Cc1n[nH]c(C)c1S(=O)(=O)N1CCC(c2nnc(-c3ccco3)s2)CC1` belongs 660 s; to `Cc1ccc(-n2nc(C(=O)Nc3ccc4c(c3)OCCO4)c3ncn(C)c(=O)c32)cc1`, 887 s; to `Cn1cc(C2=CCN(S(=O)(=O)c3cccc(Cl)c3)CC2)c2cccnc21`, 1060 s.
To `COc1ccc(OCc2nc(-c3ccc4c(c3)nc(C)c(=O)n4C3CCCC3)no2)cc1` belongs 1170 s.
Consider `CCc1ccccc1NC(=O)C(=O)c1cn(CC(=O)N2CCCC2)c2ccccc12`, for which the RP-LC retention time amounted to 644 s.
To `CCCCN(C)CCNC(=O)c1ccc(N2CCCC2=O)cc1` belongs 581 s; to `O=C(c1cccc(Cl)c1)N1CCN(c2cc(-c3ccccc3)[nH]n2)CC1`, 763 s; to `Cn1c([N+](=O)[O-])cnc1N1CCN(c2nncs2)C1=O`, 689 s.
`CCCCN1CCCC1CNC(=O)c1cc(C#N)c2ccccc2c1OC` (stereo unspecified): the RP-LC retention time was found to be 781 s.
Consider `CCc1ccccc1N(CC)C(=O)C1CCCN(c2ncnc3c2nc2n3CCCCC2)C1` (stereo unspecified), for which the RP-LC retention time was found to be 964 s.
To `COc1ccc(C2CC(=O)c3c([nH]c(C(=O)OC4CCCCC4)c3C)C2)cc1OC` (stereo unspecified) belongs 1070 s.
Turning to `CCn1cc(C)c(C(=O)O)c1CC(=O)NCc1ccc(SC)cc1`, the RP-LC retention time came to 758 s.
`COc1ccc(Nc2c(-c3ccc(C)cc3)nc3ncccn23)cc1OC`: the RP-LC retention time was determined as 683 s.
As for `CCN1CCn2cc(S(=O)(=O)Nc3ccccc3Cl)cc2C1=O`, the RP-LC retention time was determined as 706 s.
Take `COC(=O)c1c(C)c(C(=O)C(C)N(CC2CCCCC2)C(=O)c2ccccc2Cl)c(C)n1C` (stereo unspecified): the RP-LC retention time is 1240 s.
Turning to `COc1ccc(OC)c(CNC(=O)c2ccc3c(c2)N(C)C(=O)c2ccccc2O3)c1`, the RP-LC retention time came out at 852 s.
To `Cc1ccccc1Nc1c(-c2ccc(Cl)cc2)nc2cccc(C)n12` belongs 804 s.
For `CCc1cccc(NC(=O)C2CCN(S(=O)(=O)c3cn(C)cn3)CC2)c1`, the RP-LC retention time was 732 s.
To `Cc1oc(-c2ccc(C(=O)NCCN(C)C)cc2)nc1CS(=O)c1ccccc1` (stereo unspecified) belongs 590 s.
To `Cc1nc2nc(-c3ccccc3)nn2c(C)c1CC(=O)N(C)Cc1ccccc1` belongs 842 s; to `O=C(NCCSc1ncc(-c2ccc(F)cc2)[nH]1)c1cccs1`, 584 s; to `Cc1ccccc1Nc1c(-c2cccc(Cl)c2)nc2ncccn12`, 901 s.
To `COc1c(C(=O)NC2CC2)sc2cc(Cl)ccc12` belongs 965 s.
Regarding `CCNC(=O)N1CCOc2ccc(N(C)C)cc2C1`, the RP-LC retention time was determined as 548 s.
The molecule `CNC(=O)c1ccc(-n2nc(Sc3ccc(OC)cc3)ccc2=O)cc1` gave an RP-LC retention time of 702 s.
As for `CC(C)NCc1ccc(-c2ccccc2)o1`, the RP-LC retention time came to 612 s.
Regarding `COc1ccc(-c2nc3cnccn3c2Nc2ccc(Cl)cc2)cc1`, the RP-LC retention time stood at 896 s.
To `CCCNC(=O)N1CCN(c2cc(-c3ccc(OC)c(OC)c3)ncn2)CC1` belongs 601 s; to `Cc1nc(OCC(=O)Nc2c(C)cccc2C)c2ccccc2n1`, 756 s; to `Cc1ccc(NC(=O)C2CCN(S(C)(=O)=O)c3ccccc3O2)c(C)c1` (stereo unspecified), 894 s.
On to `Cc1ccn2cc(-c3ccc(NC(=O)c4ccco4)cc3)nc2n1`, for which the RP-LC retention time was 596 s.
Turning to `CCOC(=O)c1cn2nc(SCc3ccccc3)nc2nc1C`, the RP-LC retention time came to 1000 s.
To `COc1cc(C(=O)N2CCCC2c2nc(-c3ccccc3Cl)no2)cc(OC)c1OC` (stereo unspecified) belongs 906 s.
On to `CCOC(=O)c1c(C)n(C)c2ccc(OCC(O)CN3CCOCC3)cc12` (stereo unspecified), for which the RP-LC retention time came to 630 s.
To `COC(=O)CSC1=C(C#N)C(c2ccsc2)CC(=O)N1` (stereo unspecified) belongs 707 s; to `Cc1ccc(NS(=O)(=O)c2cc3n(c2)CCN(C(C)C)C3=O)c(C)c1`, 800 s; to `Cc1cc(OCC(=O)N[C@@H](CC(C)C)C(=O)O)c2c3c(c(=O)oc2c1)CCCC3`, 894 s.
`CC(C)c1ccc(-c2ccnc3c(C(=O)NCc4cccnc4)cnn23)cc1` yielded an RP-LC retention time of 723 s.
In turn, `Cc1cccc(NC(=O)C2CCN(S(=O)(=O)c3cn(C(C)C)cn3)CC2)n1` displayed an RP-LC retention time of 632 s.
In turn, `Cc1ccc(NC(=O)C(=O)NCC(c2ccc3c(c2)OCO3)N2CCOCC2)c(C)c1` (stereo unspecified) returned an RP-LC retention time of 693 s.
Consider `CCc1nnc(NC(=O)c2ccoc2COc2ccc(C)cc2)s1`, for which the RP-LC retention time came to 803 s.
To `CCc1ccc(Nc2nc(C(=O)NCCOC)nc3ccccc23)cc1` belongs 748 s.
